Results published in ChEMBL document CHEMBL1151125, “Constituents of Michelia Rajaniana. Two new germacranolide amides” (1988).

Key:
Assay type in all cases: functional
Conditions in all cases: read-out: ED50 (the source's name)
[1] = test system: MCF7; test: Cytotoxicity against human MCF7 cells
[2] = test system: A549; test: Cytotoxicity against human A549 cells
[3] = test system: HT-29; test: Cytotoxicity against human HT-29 cells

Measured: EC50

CC(=O)NC[C@@H]1C(=O)O[C@H]2[C@H]1[C@@H](O)C/C(C)=C/CC[C@@]1(C)O[C@@H]21
> 100 µg/mL: all assays above

CC(=O)NC[C@@H]1C(=O)O[C@H]2[C@H]1CC/C(C)=C/CC[C@@]1(C)O[C@@H]21
> 100 µg/mL: all assays above
